Reference: the NIST ThermoML archive (doi:10.1016/j.fluid.2016.01.044)
Numbers after ± are expanded uncertainties.

Assays:
[1] = Crystal; DTA
[2] = Molar enthalpy of transition or fusion; conditions: Crystal; DSC

SMILES | Normal melting temperature [1] [°C] | Molar enthalpy of transition or fusion [2] [kcal/mol]
CCCCCCCCCC [decane] | -28.52 ± 0.5 | 6.89 ± 0.196
CCCCCCCCCCCC(=O)OCC [ethyl dodecanoate] | -0.20 ± 0.5 | 9.15 ± 0.263
CCCCCCCCCCCCCCCC(=O)OCC [ethyl hexadecanoate] | 24.78 ± 0.5 | 
